Measured values from PMC6920806, “Synthesis of β-D-galactopyranoside-Presenting Glycoclusters, Investigation of Their Interactions with Pseudomonas aeruginosa Lectin A (PA-IL) and Evaluation of Their Anti-Adhesion Potential” (Biomolecules, 2019).
In brackets after ≈: the same amount, converted by molar mass.

Columns and labels:
[1] = test system: adhesion of P. aeruginosa (ST 1763) to epithelial bronchial cells (CuFi-1); parameters: method as in PMID 31216664; details: previous study; cited from earlier work
[2] = molecular target: T1, lectin PA-IL (Pseudomonas aeruginosa, UniProt Q05097); assay: Analytical ultracentrifugation (sedimentation velocity), cross-linking of lectin; details: protein:ligand ratios 1:0.1, 1:1, 1:10
T1 construct: made in house; host or cells: Escherichia coli BL21(DE3)
Procedure: Analytical ultracentrifugation experiments were performed using ProteomeLab XL-I analytical ultracentrifuge (Beckman Coulter, Indianapolis, IN, USA) equipped with an An-60 Ti rotor. Sedimentation velocity experiments were conducted in titanium double-sector centerpiece cells (Nanolytics Instruments, Potsdam, Germany) loaded with 390 µL of both protein sample and reference solution (PBS buffer, pH = 7.5). PA-IL without the added ligand and PA-IL samples pre-incubated with different concentrations of galactosylated dendrimers 4, 7, 10 and 13 and D-galactose (protein:ligand ratios of 1:0.1, 1:1 and 1:10) were analyzed by the sedimentation velocity experiment. All the measurements were performed in PBS buffer with 22 µM PA-IL. Data were collected using absorbance optics at 25 °C at a rotor speed of 48,000 rpm. Scans were collected at 280 nm (or alternatively at 294 nm to decrease the absorbance signal of the samples containing excess of the UV-absorbing ligands 4 and 10) at 5-min intervals and 0.003 cm spatial resolution in continuous scan mode. The partial specific volume of the protein and the solvent density and viscosity were calculated from the amino acid sequence and buffer composition, respectively, using the software Sednterp (http://bitcwiki.sr.unh.edu). The data were analyzed with the continuous c(s) distribution model implemented in the program Sedfit 15.01b. For the regularization procedure, a confidence level of 0.95 was used. The plots of c(s) distributions were created in GUSSI 1.3.1 [28].

[3] = molecular target: T1, lectin PA-IL; assay: SPR inhibition of PA-IL binding to immobilized D-galactosides
Procedure: Surface plasmon resonance (SPR) experiments were performed on a BIAcore T200 instrument (GE Healthcare, Chicago, IL, USA) at 25 °C, using HBST running buffer (10 mM HEPES, 150 mM NaCl, 0.5 mM CaCl2, 0.05% Tween 20, pH = 7). A CM5 sensor chip (GE Healthcare, Chicago, IL, USA) covered with a carboxymethylated dextran matrix was used for ligand immobilization. The sensor chip surface was activated with N-ethyl-N-(3-dimethylaminopropyl)carbodiimide/N-hydroxysuccinimide solution and then coated with streptavidin (Sigma-Aldrich, St. Louis, MO, USA) in 10 mM acetate pH = 5.0 according to the manufacturer’s standard protocol to a final response of 7000 RU. Unreacted groups were blocked with 1 M ethanolamine-HCl, pH = 8.5. 0.5 mM biotinylated carbohydrate (1:1 mixture of biotin-α-D-galactoside and biotin-β-D-galactoside for measuring channel and α-L-fucoside for blank channel, all Lectinity, Moskow, Russia) was injected into a particular channel at a flow rate of 5 μL min^−1.
In the experimental setup, SPR inhibition measurements were carried out simultaneously on both measuring and blank channels at a flow rate of 5 µL min^−1. […] The response of the blank channel was subtracted from the response of lectin bound to the galactose-modified surface at equilibrium and plotted against the concentration of inhibitor in order to determine IC50 (concentration of inhibitor resulting in 50% inhibition of binding). As IC50 is not a constant and depends on the experimental set-up, a parameter called potency was used for characterization. The potency of a tested inhibitor is the ratio of IC50 of a chosen standard inhibitor (in this case, D-galactose) and the inhibitor in question. Pure lectin PA-IL was used as a control (0% inhibition).

[4] = molecular target: T1, lectin PA-IL; assay: Hemagglutination inhibition assay (HIA) with microscope detection; assay type: biochemical
Procedure: PA-IL was dissolved in the buffer with calcium ions suitable for the activity of the lectin (20 mM Tris/HCl, 150 mM NaCl, 5 mM CaCl2, pH = 7.5) to the concentration 0.25 mg mL^−1. Lectin was mixed with carbohydrate inhibitors serially diluted in the buffer in a 5 µL:5 µL ratio. Therefore, the final (working) concentration of the lectin was 0.125 mg mL^−1. A total of 10 µL of 20% papain-treated, azid-stabilized red blood cells B^+ in the buffer was then added, and the mixture was thoroughly mixed and incubated for 5 min at room temperature. After incubation, the mixture was again mixed, transferred to a microscope slide, and examined. The examination was conducted using the Levenhuk D2L NG Digital Microscope (Levenhuk, Tampa, FL, USA). Images were obtained with a Levenhuk D2L digital camera (Levenhuk, Tampa, FL, USA) using the software ToupView for Windows (Version 3.7, Levenhuk, Tampa, FL, USA). The positive (experiment without inhibitor) and negative control (experiment without lectin) were prepared and processed in the same way using the appropriate volume of dissolving buffer instead of the omitted components. The minimal inhibitory concentration (MIC) of the inhibitor able to inhibit hemagglutination was determined and compared with the standard (D-galactose) and the potency of the inhibitor was calculated (MIC of the standard/MIC of the inhibitor).

[5] = molecular target: T1, lectin PA-IL; assay: Isothermal titration microcalorimetry (ITC); assay type: binding
Procedure: All the experiments were performed on MicroCal iTC200 (Malvern Instruments, Malvern, UK) at 25 °C. The freeze-dried lectin PA-IL was dissolved in 0.1 M Tris/HCl, 500 μM CaCl2, pH = 7.5, and equilibrated at room temperature for 1 h before ITC measurements. Multivalent galactosylated compounds 4, 7, 10 and 13 were diluted in the same buffer and used in 0.25–0.5 mM concentrations. Aliquots of 2 µL of the compounds were added automatically to the 0.078 mM or 0.088 mM PA-IL in the calorimeter cell. Blank experiments (injections of compounds to the buffer) were performed and heat responses were subtracted. Integrated heat effects were analyzed by global fitting of data obtained from three independent titrations for each tested compound by non-linear regression using a single site-binding model (Microcal Origin 7, Malvern Instruments, Malvern, UK). Fitted data yielded the association constant (Ka) and the enthalpy of binding (ΔH). Other thermodynamic parameters, i.e., changes in free energy (ΔG) and entropy (ΔS), were calculated from the following equation: ΔG = ΔH − TΔS = −RT ln Ka, where T is the absolute temperature and R = 8.314 J mol^−1 K^−1. The monosaccharide D-galactose was used as a control; 4 mM D-galactose was added to the 0.147 mM PA-IL in the calorimeter cell. Two titration experiments were performed and the heat responses were processed and evaluated as mentioned above.

T1 sequence (Q05097 2-122): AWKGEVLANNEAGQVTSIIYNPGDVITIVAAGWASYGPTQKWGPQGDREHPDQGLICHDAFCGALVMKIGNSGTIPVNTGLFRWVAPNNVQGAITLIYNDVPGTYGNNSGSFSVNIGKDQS

| Structure (SMILES) | most effective concentration [1] | cross-linking of PA-IL (formation of the 6.4 S particle) [2] | IC50 [3] | Potency (IC50 of standard/IC50 of inhibitor) ([3]; SPR, standard D-galactose) | β (Potency/Valency) ([3]; SPR, standard D-galactose) | Potency (MIC of standard/MIC of inhibitor) ([4]; HIA, standard D-galactose) | β (Potency/Valency) ([4]; HIA, standard D-galactose) | MIC (minimal inhibitory concentration) ([4]; inhibition of hemagglutination caused by PA-IL (0.125 mg mL−1), papain-treated red blood cells B+) | Kd [5] | ΔH ([5]; ITC, 25 °C) | −T ΔS ([5]; ITC, 25 °C, calculated from ΔG = ΔH − TΔS) | ΔG ([5]; ITC, 25 °C, calculated from −RT ln Ka) | n (stoichiometry) ([5]; ITC, 25 °C, single site-binding model) |
| --- | --- | --- | --- | --- | --- | --- | --- | --- | --- | --- | --- | --- | --- |
| C[C@@H]1O[C@@H](OCc2cn(CCOCCOCCOCCn3cc(COCC(COCc4cn(CCOCCOCCOCCn5cc(CO[C@@H]6O[C@@H](C)[C@@H](O)[C@@H](O)[C@@H]6O)nn5)nn4)(COCc4cn(CCOCCOCCOCCn5cc(CO[C@@H]6O[C@@H](C)[C@@H](O)[C@@H](O)[C@@H]6O)nn5)nn4)COCc4cn(CCOCCOCCOCCn5cc(CO[C@@H]6O[C@@H](C)[C@@H](O)[C@@H](O)[C@@H]6O)nn5)nn4)nn3)nn2)[C@@H](O)[C@H](O)[C@@H]1O [Compound 14] | 250 µM |  |  |  |  |  |  |  |  |  |  |  |  |
| O=C[C@H](O)[C@@H](O)[C@@H](O)[C@H](O)CO [D-galactose, reference compound] |  | negligible effect | 187 µM | 1 | 1 | 1 | 1 | 6.25 mM (≈ 1130 µg/mL) | 147 µM | -9.03 ± 0.698 kcal/mol | 3.8 ± 0.507 kcal/mol | -5.23 ± 0.294 kcal/mol | 0.78 ± 0.05 |
